Among the test systems are RXF 393 renal; M14 melanoma; OVCAR-8 ovarian; SK-OV-3 ovarian; OVCAR-4 ovarian; SNB-75 CNS; 786-0 renal; UACC-257 melanoma; HOP-62 NSCLC; HL-60(TB) leukemia.
Common to all, as to experiment: NCI tumour cell line growth inhibition, 48 h

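Grown in 96-well plates, cells were treated for 48 hours with each compound at five concentrations. Insufficient inhibition: endpoint recorded as highest concentration tested. Here, GI50 denotes the concentration required for 50% inhibition of growth. TGI denotes the concentration required for complete inhibition of growth.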

With `Cc1cc2c(=O)cc(-c3ccc(Cl)cc3Cl)oc2c(C(=O)O)c1C`, the TGI in the assay on RXF 393 renal, in the assay on M14 melanoma, with OVCAR-8 ovarian, with SK-OV-3 ovarian, in the assay on OVCAR-4 ovarian and with SNB-75 CNS was > 100 µM in each case. The TGI in the assay on 786-0 renal and in the assay on UACC-257 melanoma was > 100 µM each time.
Turning to `CC(=O)OC1C(COC(N)=O)OC(n2c(-c3ccc(C)cc3)cc(-c3ccccc3)c(C#N)c2=O)C(OC(C)=O)C1OC(C)=O` (stereo not given), the TGI with RXF 393 renal, in the assay with M14 melanoma, with OVCAR-8 ovarian, in the assay with HOP-62 NSCLC, in the assay with SK-OV-3 ovarian and with OVCAR-4 ovarian was > 100 µM each time. Moreover, the TGI in the assay on SNB-75 CNS, in the assay on 786-0 renal and in the assay on UACC-257 melanoma was > 100 µM in each case.
Regarding `CCOc1ccc(N=C2NC(=O)C(CC(=O)Nc3ccc(Cl)cc3Cl)S2)cc1` (stereo not given), the TGI with M14 melanoma, in the assay on OVCAR-8 ovarian, in the assay with HOP-62 NSCLC, in the assay on SK-OV-3 ovarian, with OVCAR-4 ovarian and with SNB-75 CNS was > 100 µM in each case. Also, the TGI in the assay with 786-0 renal and with UACC-257 melanoma was > 100 µM each time.
As to `Nc1n[nH]c2ccc([C@H]3[C@@H]4C5CCC(C5)[C@@H]4c4c(ccc5[nH]ncc45)N3S(=O)(=O)C3CC3)cc12` (stereo not given in full), the GI50 was 0.12 µM in the assay with HL-60(TB) leukemia; 0.146 µM in the assay with M14 melanoma; 0.213 µM in the assay on OVCAR-8 ovarian; 0.335 µM in the assay with HOP-62 NSCLC; 5.59 µM in the assay with SK-OV-3 ovarian; 2.63 µM in the assay on OVCAR-4 ovarian. The GI50 was 0.138 µM in the assay with SNB-75 CNS, 0.366 µM in the assay with 786-0 renal and 8.04 µM in the assay with UACC-257 melanoma. The TGI in the assay with HL-60(TB) leukemia is 0.996 µM; in the assay on M14 melanoma, 15.1 µM; in the assay with OVCAR-8 ovarian it was > 41.1 µM; with HOP-62 NSCLC it was 20.7 µM; in the assay on SK-OV-3 ovarian it was 38.8 µM; in the assay on OVCAR-4 ovarian, > 50 µM. For the same compound, the TGI with SNB-75 CNS is 2.42 µM; with 786-0 renal, 22.3 µM; in the assay on UACC-257 melanoma it was > 47.5 µM.
As for `CCCC(c1cc(C(C)(C)C)c(O)cc1C)c1cc(C(C)(C)C)c(O)cc1C`, the TGI is 4.56 µM in the assay with RXF 393 renal; 4.94 µM with HL-60(TB) leukemia; 4.51 µM in the assay with M14 melanoma; 12.9 µM in the assay with OVCAR-8 ovarian; 8 µM with HOP-62 NSCLC; 12.4 µM with SK-OV-3 ovarian. Besides, the TGI was 19.4 µM with OVCAR-4 ovarian, 5.41 µM in the assay with 786-0 renal and 5.69 µM in the assay on UACC-257 melanoma.
As for `CC(=O)NS(=O)(=O)c1ccc(-n2nc(-c3ccccc3)cc2-c2cc(O)ccc2O)cc1`, the GI50 with HL-60(TB) leukemia is 61.8 µM; with M14 melanoma it was 31.4 µM; in the assay on OVCAR-8 ovarian it was > 100 µM; in the assay on HOP-62 NSCLC, > 100 µM; with 786-0 renal, 57.5 µM; in the assay on UACC-257 melanoma, > 100 µM. Besides, the TGI in the assay on HL-60(TB) leukemia, in the assay on M14 melanoma, with OVCAR-8 ovarian, with HOP-62 NSCLC, in the assay on 786-0 renal and in the assay with UACC-257 melanoma was > 100 µM each time.
As to `Cc1cc(C)c2c(=O)cc(-c3ccc(F)cc3)[nH]c2n1`, the GI50 with HL-60(TB) leukemia is 15.5 µM; in the assay with 786-0 renal, 78.8 µM. Further, the TGI is 37.4 µM in the assay on HL-60(TB) leukemia; > 100 µM in the assay with M14 melanoma; > 100 µM in the assay on OVCAR-8 ovarian; > 100 µM with HOP-62 NSCLC; > 100 µM with SK-OV-3 ovarian; 48.3 µM with OVCAR-4 ovarian. Besides, the TGI in the assay on SNB-75 CNS, with 786-0 renal and in the assay with UACC-257 melanoma was > 100 µM each time.
`Cn1cnc([N+](=O)[O-])c1Sc1nccn1-c1ccccc1`: the TGI in the assay with M14 melanoma, in the assay on OVCAR-8 ovarian, in the assay with HOP-62 NSCLC, with SK-OV-3 ovarian, in the assay on OVCAR-4 ovarian and with SNB-75 CNS was > 100 µM each time. The TGI in the assay on 786-0 renal and in the assay on UACC-257 melanoma was > 100 µM each time.
Take `Cc1cc2c(=O)cc(-c3ccc(Cl)c(Cl)c3)oc2c(C(=O)O)c1C`: the TGI in the assay on RXF 393 renal, in the assay on M14 melanoma, with OVCAR-8 ovarian, with SK-OV-3 ovarian, with OVCAR-4 ovarian and with SNB-75 CNS was > 100 µM each time. Also, the TGI in the assay on 786-0 renal and in the assay on UACC-257 melanoma was > 100 µM each time.
With `CSc1nc(SC)c2c(C)cn(Cc3ccccc3)c2n1`, the TGI with HL-60(TB) leukemia, in the assay with M14 melanoma, in the assay on OVCAR-8 ovarian, in the assay with HOP-62 NSCLC, in the assay on SK-OV-3 ovarian and in the assay with OVCAR-4 ovarian was > 100 µM throughout. The TGI in the assay with SNB-75 CNS and with 786-0 renal was > 100 µM in each case.
For the compound `O=C1C2=C(c3ccccc31)C(c1ccccc1Cl)NC(=S)N2` (stereo not given), the TGI in the assay on HL-60(TB) leukemia, with M14 melanoma, with OVCAR-8 ovarian, in the assay on HOP-62 NSCLC, in the assay on SK-OV-3 ovarian and in the assay on OVCAR-4 ovarian was > 100 µM each time. For the same compound, the TGI in the assay with SNB-75 CNS, with 786-0 renal and with UACC-257 melanoma was > 100 µM each time.
As to `O=P1(O)c2ccccc2CSCc2ccccc21`, the TGI in the assay on RXF 393 renal, in the assay on HL-60(TB) leukemia, in the assay with M14 melanoma, in the assay with OVCAR-8 ovarian, with HOP-62 NSCLC and in the assay on SK-OV-3 ovarian was > 100 µM throughout. Further, the TGI in the assay with OVCAR-4 ovarian, with 786-0 renal and in the assay with UACC-257 melanoma was > 100 µM each time.
As for `CCOC(=O)Nc1ccc2c3c(cccc13)-c1ccccc1-2`, the GI50 in the assay with RXF 393 renal was 6.92 µM; in the assay with M14 melanoma it was 4.32 µM; with OVCAR-8 ovarian, > 100 µM; in the assay on HOP-62 NSCLC it was 5.27 µM; with SK-OV-3 ovarian it was 9.18 µM; in the assay on OVCAR-4 ovarian, > 100 µM. Moreover, the GI50 is 8.97 µM with SNB-75 CNS, 8 µM in the assay on 786-0 renal and > 100 µM with UACC-257 melanoma. The TGI in the assay with RXF 393 renal, with M14 melanoma, with OVCAR-8 ovarian, in the assay on HOP-62 NSCLC, in the assay on SK-OV-3 ovarian and in the assay on OVCAR-4 ovarian was > 100 µM each time. Further, the TGI in the assay on SNB-75 CNS, in the assay with 786-0 renal and in the assay on UACC-257 melanoma was > 100 µM throughout.
